Results taken from patent publication US9358262B2, “Use of antioxidant-enriched fermented blueberry extracts in the treatment of diabetes” (priority 2003, dated 2016).
“Also recorded” adds a separate entry of the source.

Key:
[1] = test system: RAW 264.7 gamma NO(−) macrophages; test: Cell viability of activated macrophages (MTT or resazurin assay); format: cell-based, mouse
Protocol: Cell culture. […] All cultures were incubated at 37° C. in a humidified atmosphere with 5% CO2. Cell number was assessed by trypan blue dye exclusion on a Neubauer hemacytometer. Cells were grown to 90% confluence in sterile cell culture flasks and gently detached using a scraper (Fisher Scientific). For phenolic compound treatment tests, cells were cultured in triplicate in Costar flat-bottom cell culture plates (Corning Inc.). Cells were plated at a density of 6×10^5 cells/well in 24-well cell culture plates and grown for 1 h to allow them to attach to the plate. Compounds to be tested were initially dissolved in 10 μl of DMSO, and then RPMI was added to make solutions in a series of concentrations with a dilution factor of 2. […] Cells were supplemented with the test compounds for 1 h before stimulation with 10 ng/ml lipopolysaccharide (LPS) and 10-50 units/ml interferon gamma (IFN-γ). The activated cells were incubated for 24 h and then supernatants were collected to determine nitrite concentration and/or stored at −80° C. for further use. Control cells were grown under identical conditions but were not exposed to the test compounds or LPS/IFN-γ.
Cell Viability. Cell viability was determined by the MTT assay and/or the resazurin-based in vitro toxicology assay kit, TOX-8 (Sigma). The viability of cells activated only by LPS/IFN-γ was arbitrarily set as 100, and all other viabilities, that is, cells receiving different treatments but within the same 24-well plate, were normalized to that of the LPS/IFN-γ activated control cells.
Inhibition of Nitric Oxide Production. […] Cell viability was assayed to exclude the possibility that the inhibitory effects of phenolic compounds were due to their cytotoxicity. The MTT assay was used for the colorless phenolic compound-treated macrophages, whereas the resazurin assay was used for cranberry and blueberry juice-treated macrophages.

[2] = test system: LPS/IFN-γ-activated RAW 264.7 gamma NO(−) macrophages; test: Inhibition of nitric oxide production (nitrite, Griess reaction) in activated macrophages; format: cell-based, mouse; settings: for Nitrite: 24 h after LPS/IFN-γ; for inhibition at 63 µM: RAW264.7, 63 μM (μM GAE for juices); for inhibition at 125 µM: RAW264.7, 125 μM (μM GAE for juices); for inhibition at 250 µM: RAW264.7, 250 μM (μM GAE for juices); for inhibition at 500 µM: RAW264.7, 500 μM (μM GAE for juices); for Effect on NO production, in words: over the tested concentrations
Protocol: Cell culture. The mouse monocyte/macrophage cell line RAW 264.7 gamma NO(−) [American Type Culture Collection (ATCC)] was cultured in RPMI-1640 supplemented with 10% (v/v) heat-inactivated FBS, streptomycin ([…]) and penicillin (100 units/ml). All cultures were incubated at 37° C. in a humidified atmosphere with 5% CO2. Cell number was assessed by trypan blue dye exclusion on a Neubauer hemacytometer. Cells were grown to 90% confluence in sterile cell culture flasks and gently detached using a scraper (Fisher Scientific). For phenolic compound treatment tests, cells were cultured in triplicate in Costar flat-bottom cell culture plates (Corning Inc.). Cells were plated at a density of 6×10^5 cells/well in 24-well cell culture plates and grown for 1 h to allow them to attach to the plate. Compounds to be tested were initially dissolved in 10 μl of DMSO, and then RPMI was added to make solutions in a series of concentrations with a dilution factor of 2. The final concentrations of test compound that cells received were 16, 31, 63, 125, 250, and 500 μM, respectively. For berry juices, the final concentrations were 16, 31, 63, 125, 250 and 500 μM GAE, respectively. Cells were supplemented with the test compounds for 1 h before stimulation with 10 ng/ml lipopolysaccharide (LPS) and 10-50 units/ml interferon gamma (IFN-γ). The activated cells were incubated for 24 h and then supernatants were collected to determine nitrite concentration and/or stored at −80° C. for further use. Control cells were grown under identical conditions but were not exposed to the test compounds or LPS/IFN-γ.
Nitric Oxide (NO) Determination. Nitrite concentration was used as an indication of NO production. The procedure for NO determination was based on the Griess reaction. The assay was assessed as in the methods of Wang and Mazza (2002a, 2002b) for cell supernatants supplemented with phenolic compounds or berry juices. In brief, 100 μL of cell culture supernatant or sodium nitrite standard was mixed with an equal volume of Griess reagent [a mixture of 0.1% (w/v) N-(1-naphthyl)-ethylenediamine dihydrochloride and 1% (w/v) sulfanilamide in 5% (v/v) phosphoric acid, the two parts being mixed together within 1 h of use] using a 96-well plate. A set of parallel analyses was also conducted by applying only 100 μL of 2.5% (v/v) phosphoric acid instead of Griess reagent to each of 100 μL of cell supernatants or the mixture of standard sodium nitrite and cyanidin chloride. After 20 min at room temperature, the absorbance at 540 nm was measured using the microtitration reader. The net absorbance of the product of the Griess reaction was obtained by subtracting that of anthocyanins from the total. The absorbance was referred to a nitrite standard curve to determine the nitrite concentration in the supernatants.
Inhibition of Nitric Oxide Production. RAW 264.7 gamma NO(−) cell line was derived from the RAW 264.7 mouse monocyte/macrophage cell line. […] When LPS/IFN-γ was administered to RAW 264.7 gamma (NO−) macrophages, NO production, measured as nitrite, increased dramatically from the basal level of 0 to ≧30 μM after 24 h. To determine the effects of cranberry and blueberry juice and other phenolic compounds on NO production, different concentrations of these compounds (500, 250, 125, 63, and 16 μM) were incubated with the LPS/IFN-γ-activated macrophages (Table 7). Cell viability was assayed to exclude the possibility that the inhibitory effects of phenolic compounds were due to their cytotoxicity. The MTT assay was used for the colorless phenolic compound-treated macrophages, whereas the resazurin assay was used for cranberry and blueberry juice-treated macrophages. […]

[3] = NO experiment (Table 7), 31 μM, LPS/IFN-γ control = 100
[4] = NO experiment (Table 7), 63 μM, LPS/IFN-γ control = 100
[5] = NO experiment (Table 7), 125 μM, LPS/IFN-γ control = 100
[6] = TNF-α experiment (Table 8), 100 μM
[7] = TNF-α experiment (Table 8), 200 μM
[8] = TNF-α experiment (Table 8), 300 μM
[9] = TNF-α experiment (Table 8), 400 μM
[10] = TNF-α experiment (Table 8), 500 μM
[11] = Mus musculus, read-out: Inhibitory effect (decrease of NO production)

With `O=C(/C=C/c1ccc(O)c(O)c1)O[C@@H]1C[C@](O)(C(=O)O)C[C@@H](O)[C@H]1O` [Chlorogenic acid] the Cell viability [1, 3] was 105.6 (8.7) %, the Cell viability [1, 4] was 106 (5.7) % and the Cell viability [1, 5] was 98.5 (7.1) %. The Cell viability [1, 6] was 100.6 (1.9) %, the Cell viability [1, 7] was 98.9 (2.3) % and the Cell viability [1, 8] was 97.1 (1.4) %. The Cell viability [1, 9] was 97.3 (1) %, the Cell viability [1, 10] was 99 (1.9) % and the Nitrite ([2]; 16 μM (μM GAE for juices)) was 37.1 (0.4) μM. The Nitrite ([2]; 31 μM (μM GAE for juices)) was 39 (1) μM, the Nitrite ([2]; 63 μM (μM GAE for juices)) was 40.4 (1.64) μM and the Nitrite ([2]; 125 μM (μM GAE for juices)) was 41.7 (1.7) μM. For the same molecule, the Nitrite ([2]; 250 μM (μM GAE for juices)) was 47.6 (1.4) μM, the Nitrite ([2]; 500 μM (μM GAE for juices)) was 46.6 (1.5) μM and the inhibition at 16 µM ([2]; Mus musculus, RAW264.7, 16 μM (μM GAE for juices), read-out: Inhibitory effect (decrease of NO production)) was -9.6%. For the same molecule, the inhibition at 31 µM ([2]; Mus musculus, RAW264.7, 31 μM (μM GAE for juices), read-out: Inhibitory effect (decrease of NO production)) was -15.2%, the inhibition at 63 µM [2, 11] was -19.5% and the inhibition at 125 µM [2, 11] was -23.4%. The inhibition at 250 µM [2, 11] was -40.8%, the inhibition at 500 µM [2, 11] was -37.9% and the “Effect on NO production, in words” value [2] was “showed no inhibitory effects; also recorded: induced production of NO”.

With `O=C(O)c1cc(O)c(O)c(O)c1` [Gallic acid] the Cell viability ([1]; NO experiment (Table 7), 16 μM, LPS/IFN-γ control = 100) was 110 (2.2) %, the Cell viability [1, 3] was 111 (6.4) % and the Cell viability [1, 4] was 98.9 (0.9) %. For the same molecule, the Cell viability [1, 5] was 108.5 (0.6) %, the Cell viability ([1]; NO experiment (Table 7), 250 μM, LPS/IFN-γ control = 100) was 100.6 (3.7) % and the Cell viability ([1]; NO experiment (Table 7), 500 μM, LPS/IFN-γ control = 100) was 109.7 (5.4) %. The Cell viability ([1]; TNF-α experiment (Table 8), 50 μM) was 97.7 (0.4) %, the Cell viability [1, 6] was 98.3 (2.3) % and the Cell viability [1, 7] was 96.7 (0.8) %. For the same molecule, the Cell viability [1, 8] was 97.6 (2.5) %, the Cell viability [1, 9] was 96.1 (2.3) % and the Cell viability [1, 10] was 95.6 (1.6) %. The Nitrite ([2]; 16 μM (μM GAE for juices)) was 36.2 (3.7) μM, the Nitrite ([2]; 31 μM (μM GAE for juices)) was 35.4 (2.9) μM and the Nitrite ([2]; 63 μM (μM GAE for juices)) was 29.3 (0.3) μM. The Nitrite ([2]; 125 μM (μM GAE for juices)) was 31.1 (5.9) μM, the Nitrite ([2]; 250 μM (μM GAE for juices)) was 25.2 (1.5) μM and the Nitrite ([2]; 500 μM (μM GAE for juices)) was 22.6 (0.6) μM. For the same molecule, the “Inhibitory effect (decrease of NO production)” value ([2]; 500 μM (μM GAE for juices), 500 µM) was 30.9 (1.9) %, the inhibition at 63 µM [2, 11] was 10.5% and the inhibition at 125 µM [2, 11] was 19%. The inhibition at 250 µM [2, 11] was 23%, the inhibition at 500 µM [2, 11] was 30% and the “Effect on NO production, in words” value [2] was “dose-dependent”.
